This passage reports Ki results from US20250115583A1, “BICYCLIC INDAZOLE GLUCOCORTICOID RECEPTOR ANTAGONISTS” (Corcept Therapeutics Incorporated, priority 2021, published 2025).

Usually Ki stands for the dissociation constant of the complex between target and ligand, obtained from inhibition or displacement. Lower therefore signals higher affinity.

For this assay, the target named is glucocorticoid receptor (Homo sapiens (Human), UniProt P04150). Kind of assay: HepG2 TAT assay: inhibition of dexamethasone-induced tyrosine aminotransferase (TAT) activity. Format: cell-based. Conditions: HepG2 cells, challenge of 100 nM dexamethasone, 18-24 hr; IC50 converted to Ki by Cheng and Prusoff equation. The procedure: Glucocorticoid mediated activation of TAT occurs by transactivation of glucocorticoid response elements in the TAT promoter by glucocorticoid receptor-agonist complex.
HepG2 cells were cultured using MEME media supplemented with 10% (v/v) foetal bovine serum; 2 mM L-glutamine and 1% (v/v) NEAA at 37° C., 5%/95% (v/v) CO2/air.
Compounds were serially half log diluted in 100% (v/v) dimethylsulphoxide from a 10 mM stock.
HepG2 cells were then lysed with 30 μl of cell lysis buffer containing a protease inhibitor cocktail for 15 minutes at 4° C. […] After 2 hours incubation at 37° C. the reaction was terminated by the addition of 15 μl of 10M aqueous potassium hydroxide solution, and the plates incubated for a further 30 minutes at 37° C.
[compound] and fitting the data to a 4 parameter logistic equation.

Sequence of glucocorticoid receptor (P04150 whole entry): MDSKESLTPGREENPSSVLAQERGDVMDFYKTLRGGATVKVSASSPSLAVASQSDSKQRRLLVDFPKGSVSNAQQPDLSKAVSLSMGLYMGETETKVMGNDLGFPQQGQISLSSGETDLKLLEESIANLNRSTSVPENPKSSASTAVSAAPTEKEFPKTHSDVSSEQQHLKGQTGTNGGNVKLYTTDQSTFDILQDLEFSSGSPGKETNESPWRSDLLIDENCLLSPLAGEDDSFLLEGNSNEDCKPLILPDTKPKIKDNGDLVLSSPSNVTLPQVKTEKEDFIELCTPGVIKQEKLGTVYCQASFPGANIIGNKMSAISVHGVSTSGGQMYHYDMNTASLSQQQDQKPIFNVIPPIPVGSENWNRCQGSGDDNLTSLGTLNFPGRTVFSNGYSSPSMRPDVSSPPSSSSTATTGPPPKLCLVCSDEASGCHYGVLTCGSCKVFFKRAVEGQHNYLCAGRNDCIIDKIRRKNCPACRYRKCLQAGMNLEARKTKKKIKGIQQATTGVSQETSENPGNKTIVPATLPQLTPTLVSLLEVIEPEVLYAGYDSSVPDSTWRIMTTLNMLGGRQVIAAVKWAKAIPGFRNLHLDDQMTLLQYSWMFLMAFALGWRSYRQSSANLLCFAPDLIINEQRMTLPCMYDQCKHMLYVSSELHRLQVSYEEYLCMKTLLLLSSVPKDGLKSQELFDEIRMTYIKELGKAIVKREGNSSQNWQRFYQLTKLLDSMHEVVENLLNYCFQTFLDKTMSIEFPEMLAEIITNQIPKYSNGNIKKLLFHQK

Turning to `Cc1cc2c(cnn2-c2ccc(F)cc2)cc1[C@@]12CN(C(=O)c3ncccn3)C[C@@H]1[C@H]2c1ccccc1` (stereo in doubt) [Example 171, (1-(1-(4-fluorophenyl)-6-methyl-1H-indazol-5-yl)-6-phenyl-3-azabicyclo[3.1.0]hexan-3-yl)(pyrimidin-2-yl)methanone], the Ki amounted to 36 nM.

Take `CO[C@@]1(c2ccccc2)C[C@H]2CN(S(=O)(=O)c3cnn(C(C)C)n3)C[C@@]2(c2cc3cnn(-c4ccc(F)cc4)c3cc2C)C1` [Example 23]: the Ki came to 30 nM. Compound `Cc1cc2c(cnn2-c2ccc(F)cc2)cc1[C@@]12CN(C(=O)c3cccc(C#N)c3)C[C@@H]1[C@H]2c1ccccc1` (stereo in doubt) [Example 114, 3-(1-(1-(4-fluorophenyl)-6-methyl-1H-indazol-5-yl)-6-phenyl-3-azabicyclo[3.1.0]hexane-3-carbonyl)benzonitrile] showed a Ki of 26 nM. Compound `Cc1cc2c(cnn2-c2ccc(F)cc2)cc1C12CC(Oc3ccccc3)CC1CN(C(=O)OC(C)(C)C)C2` (stereo not shown) [Example 45] showed a Ki of 96 nM. The compound `Cc1cc2c(cnn2-c2ccc(F)cc2)cc1[C@]12CN(S(=O)(=O)c3cnn(C(C)C)n3)C[C@H]1[C@@H]2c1ccccc1` [Example 80] registered a Ki of 23 nM. On to `CCn1cc(S(=O)(=O)N2C[C@@H]3C[C@@](OC)(c4ccccc4)C[C@]3(c3cc4cnn(-c5ccc(F)cc5)c4cc3C)C2)cn1` [Example 21], for which the Ki was 37 nM. For the compound `Cc1cc2c(cnn2-c2ccc(F)cc2)cc1[C@]12CN(S(=O)(=O)c3cnn(C)n3)C[C@H]1[C@@H]2C(=O)Nc1ccc(F)cn1` (stereo in doubt) [Example 54, 1-(1-(4-fluorophenyl)-6-methyl-1H-indazol-5-yl)-N-(5-fluoropyridin-2-yl)-3-((2-methyl-2H-1,2,3-triazol-4-yl)sulfonyl)-3-azabicyclo[3.1.0]hexane-6-carboxamide], the affinity, expressed as Ki, was 33 nM. `Cc1cc2c(cnn2-c2ccc(F)cc2)cc1[C@@]12CN(C(=O)C(C)C)C[C@@H]1[C@H]2c1ccccc1` (single isomer, unassigned) [Example 113, 1-(1-(1-(4-fluorophenyl)-6-methyl-1H-indazol-5-yl)-6-phenyl-3-azabicyclo[3.1.0]hexan-3-yl)-2-methylpropan-1-one]: the affinity, expressed as Ki, was 58 nM. As for `Cc1cc2c(cnn2-c2ccc(F)cc2)cc1[C@]12CN(C(=O)c3cnnn3C)C[C@H]1[C@@H]2c1ccccc1` [Example 144, (1-(1-(4-fluorophenyl)-6-methyl-1H-indazol-5-yl)-6-phenyl-3-azabicyclo[3.1.0]hexan-3-yl)(1-methyl-1H-l,2,3-triazol-5-yl)methanone], the figure is 120 nM; as for `Cc1cc2c(cnn2-c2ccc(F)cc2)cc1[C@]12CN(S(=O)(=O)c3cnn(C)n3)C[C@H]1[C@@H]2C(=O)Nc1ccccc1` [Example 62], 38 nM; as for `Cc1cc2c(cnn2-c2ccc(F)cc2)cc1C12CC(Oc3ccccn3)CC1CN(S(C)(=O)=O)C2` (stereo not shown) [Example 41], 110 nM. `Cc1cc2c(cnn2-c2ccc(F)cc2)cc1[C@@]12CN(S(=O)(=O)c3cnn(C)n3)C[C@@H]1[C@H]2C(=O)NCC(C)C` [Example 66] registered a Ki of 150 nM. `COCCS(=O)(=O)N1C[C@@H]2[C@@H](c3ccccc3)[C@]2(c2cc3cnn(-c4ccc(F)cc4)c3cc2C)C1` [Example 86] had a Ki of 32 nM. With `Cc1cc2c(cnn2-c2ccc(F)cc2)cc1[C@@]12CN(S(=O)(=O)N3CCCC3)C[C@@H]1[C@H]2c1ccccc1` (single isomer, unassigned) [Example 99], the Ki was determined as 28 nM. In the case of `Cc1cc2c(cnn2-c2ccc(F)cc2)cc1[C@@]12CN(C(=O)c3cccc(C(C)C)n3)C[C@@H]1[C@H]2c1ccccc1` (stereo in doubt) [Example 166, (1-(1-(4-fluorophenyl)-6-methyl-1H-indazol-5-yl)-6-phenyl-3-azabicyclo[3.1.0]hexan-3-yl)(6-isopropylpyridin-2-yl)methanone], the affinity, expressed as Ki, was 47 nM.

As to `Cc1cc2c(cnn2-c2ccc(F)cc2)cc1[C@@]12CN(C(=O)c3cc(C#N)ccn3)C[C@@H]1[C@H]2c1ccccc1` (single isomer, unassigned) [Example 149, 2-(1-(1-(4-fluorophenyl)-6-methyl-1H-indazol-5-yl)-6-phenyl-3-azabicyclo[3.1.0]hexane-3-carbonyl)isonicotinonitrile], the Ki was determined as 13 nM. As for `Cc1cc2c(cnn2-c2ccc(F)cc2)cc1[C@@]12CN(S(=O)(=O)c3cnn(C)n3)C[C@@H]1[C@H]2C(=O)Nc1ccc(F)cn1` (stereo in doubt) [Example 56, 1-(1-(4-fluorophenyl)-6-methyl-1H-indazol-5-yl)-N-(5-fluoropyridin-2-yl)-3-((2-methyl-2H-1,2,3-triazol-4-yl)sulfonyl)-3-azabicyclo[3.1.0]hexane-6-carboxamide], the figure is 38 nM; as for `Cc1cc2c(cnn2-c2ccc(F)cc2)cc1[C@@]12CN(C(=O)c3ncn(C)n3)C[C@@H]1[C@H]2c1ccccc1` (single isomer, unassigned) [Example 172, (1-(1-(4-fluorophenyl)-6-methyl-1H-indazol-5-yl)-6-phenyl-3-azabicyclo[3.1.0]hexan-3-yl)(1-methyl-1H-1,2,4-triazol-3-yl)methanone], 26 nM. On to `Cc1cc2c(cnn2-c2ccc(F)cc2)cc1C12CC(Oc3ccccc3)CC1CN(S(C)(=O)=O)C2` (stereo not shown) [Example 38], for which the Ki amounted to 97 nM. `Cc1cc2c(cnn2-c2ccc(F)cc2)cc1[C@@]12CN(S(=O)(=O)c3cccnc3)C[C@@H]1[C@H]2c1ccccc1` [Example 90] came in with a Ki of 14 nM. As for `Cc1cc2c(cnn2-c2ccc(F)cc2)cc1[C@]12CN(S(=O)(=O)c3cn(C)nn3)C[C@H]1[C@@H]2c1ccccc1` [Example 97], the figure is 32 nM; as for `CCOC(=O)N1C[C@@H]2[C@@H](c3ccccc3)[C@]2(c2cc3cnn(-c4ccc(F)cc4)c3cc2C)C1` (single isomer, unassigned) [Example 122, ethyl 1-(1-(4-fluorophenyl)-6-methyl-1H-indazol-5-yl)-6-phenyl-3-azabicyclo[3.1.0]hexane-3-carboxylate], 22 nM; as for `Cc1cc2c(cnn2-c2ccc(F)cc2)cc1[C@@]12CN(C(=O)c3ccccc3F)C[C@@H]1[C@H]2c1ccccc1` (single isomer, unassigned) [Example 128, (2-fluorophenyl)(1-(1-(4-fluorophenyl)-6-methyl-1H-indazol-5-yl)-6-phenyl-3-azabicyclo[3.1.0]hexan-3-yl)methanone], 5.9 nM. `Cc1cc2c(cnn2-c2ccc(F)cc2)cc1[C@@]12CN(S(=O)(=O)c3cnn(C)n3)C[C@@H]1[C@H]2COC(C)C` (stereo in doubt) [Example 51, 1-(4-fluorophenyl)-5-(6-(isopropoxymethyl)-3-((2-methyl-2H-1,2,3-triazol-4-yl)sulfonyl)-3-azabicyclo[3.1.0]hexan-1-yl)-6-methyl-1H-indazole] had a Ki of 290 nM. `COC1CCN(S(=O)(=O)N2C[C@@H]3[C@@H](c4ccccc4)[C@]3(c3cc4cnn(-c5ccc(F)cc5)c4cc3C)C2)CC1` [Example 109] displayed a Ki of 13 nM.

As to `Cc1cc2c(cnn2-c2ccc(F)cc2)cc1[C@]12CN(S(=O)(=O)c3cnn(C)c3)C[C@H]1[C@@H]2c1ccccc1` [Example 73], the Ki turned out to be 36 nM. `Cc1cc2c(cnn2-c2ccc(F)cc2)cc1[C@]12CN(S(=O)(=O)c3cnn(C)n3)C[C@H]1[C@@H]2C(=O)Nc1ccc(F)cn1` (stereo in doubt) [Example 57, 1-(1-(4-fluorophenyl)-6-methyl-1H-indazol-5-yl)-N-(5-fluoropyridin-2-yl)-3-((2-methyl-2H-1,2,3-triazol-4-yl)sulfonyl)-3-azabicyclo[3.1.0]hexane-6-carboxamide]: the Ki stood at 190 nM. For the compound `CO[C@@]1(c2ccccc2)C[C@H]2CN(C(=O)c3ccccc3)C[C@@]2(c2cc3cnn(-c4ccc(F)cc4)c3cc2C)C1` (single isomer, unassigned) [Example 20, (3a-(1-(4-fluorophenyl)-6-methyl-1H-indazol-5-yl)-5-methoxy-5-phenylhexahydrocyclopenta[c]pyrrol-2(1H)-yl)(phenyl)methanone], the Ki was found to be 79 nM.

With `Cc1cc2c(cnn2-c2ccc(F)cc2)cc1[C@@]12CN(C(=O)c3cccc(F)c3)C[C@@H]1[C@H]2c1ccccc1` (stereo in doubt) [Example 117, (3-fluorophenyl)(1-(1-(4-fluorophenyl)-6-methyl-1H-indazol-5-yl)-6-phenyl-3-azabicyclo[3.1.0]hexan-3-yl)methanone], the affinity, expressed as Ki, was 34 nM. Take `Cc1cc2c(cnn2-c2ccc(F)cc2)cc1C12CN(S(=O)(=O)c3cnn(C)n3)CC1C2COc1ccccn1` (stereo not shown) [Example 50, 1-(4-fluorophenyl)-6-methyl-5-(3-((2-methyl-2H-1,2,3-triazol-4-yl)sulfonyl)-6-((pyridin-2-yloxy)methyl)-3-azabicyclo[3.1.0]hexan-1-yl)-1H-indazole]: the affinity corresponds to a Ki of 680 nM. As for `Cc1cc2c(cnn2-c2ccc(F)cc2)cc1[C@@]12CN(C(=O)c3cccc(C#N)n3)C[C@@H]1[C@H]2c1ccccc1` (stereo in doubt) [Example 164, 6-(1-(1-(4-fluorophenyl)-6-methyl-1H-indazol-5-yl)-6-phenyl-3-azabicyclo[3.1.0]hexane-3-carbonyl)picolinonitrile], the figure is 7.2 nM.
